# Results taken from patent publication US20040122209A1, “Products for regulating the degradation of collagen and methods for identifying same” (Shriners Hospital For Children, priority 2002, published 2004).
# Entries after “also recorded” stand apart in the source; their conditions may differ.
# What was measured:
# Type in all cases: cell-based
# [1] = tested on: normal human adult articular cartilage explants; assay: Type II collagen cleavage by collagenase (COL2-3/4C) in human articular cartilage explant culture
# Procedure: Human femoral chondylar cartilages were obtained at autopsy within 18 hours of death from adult persons with no known history of arthritis and no macroscopic signs of articular degeneration. None of the persons had diabetes or had received chemotherapy prior to autopsy. Adult bovine articular cartilage was obtained from adults/bovine steers and cows from metacarpalphalangeal joints obtained at the abbatoir immediately after slaughter. All cartilage specimens were removed immediately to the laboratory under sterile conditions.
# (§1) The cartilages were prepared as previously described (Dahlberg, L. et al. (2000) supra. In brief, the cartilage samples were washed three times with basal culture medium containing Dulbecco's modified Eagle's medium (DMEM; Gibco BRL, Life Technologies, Grand Island, N.Y.) with 20 mM HEAPS buffer (pH 7.4) (Gibco BRL), 45 mM NaHCO3, 100 units/ml penicillin, 100 μg/ml streptomycin and 150 μg/ml gentamycin sulphate (Medium A). Full-depth cartilage slices from a single area, around 20 mm×20 mm were cut vertical to the articular surface and then into cubes of approximately 2 mm×2 mm (5-7 cubes were randomly obtained and wet weights about 50-70 mg/well determined).
# The cartilage was assigned to 48 well plate (ca 40 mg/well) and kept in Medium A supplemented with 50 μg/ml ascorbic acid, 0.1 mg/bovine serum albumin, 50 μg/ml insulin, 5.0 μg/ml and 5.0 μg/ml sodium DMEM alone at 37° C. in 95% air/5% CO2. The cartilage was precultured for 2 days and medium was changed at day 0. Thereafter medium (as described in pellet cultures) was replaced every four days. Various CNBr fragments and/or synthetic peptides were freshly added from day 0 at each medium change. Thereafter, cartilage explants and conditioned media were harvested and stored at −20° C.
# The cell pellets and cartilage explant cultured for various times were digested for the extraction of collagenase-generated neoepitope COL2-3/4Cshort (Billinghurst, R. C. et al., (1997) supra) and denatured type II collagen epitope COL2-3/4m and total type II collagen (Hollander, A. P. et al. (1994a) supra), as previously described: Briefly, the harvested pellets were incubated overnight with 1.0 mg/ml α-chymotrypsin at 37° C. to cleave and solubilize denatured collagen leaving the above neoepitope and epitope intact. After inhibition of α-chymotrypsin activity with N-tosyl-L-phenelalanine-chloromethyl ketone (Sigma), the samples were centrifuged and the supernatants were removed and boiled for 10 min. The COL2-3/4Cshort epitope (hereafter referred to as COL2-3/4Cshort) generated by cleavage of type II collagen by collagenase (Billinghurst, R. C. et al. (1997) supra) and intrachain epitope (COL2-3/4m) exposed in denatured type II collagen (Hollander, A. P. et al. (1994a) supra) were measured in α-chymotrypsin extracts by immunoassay. The COL2-3/4Cshort epitope is detected in an ELISA assay using a rabbit antibody to the carboxyterminal cleavage neoepitope on the TCA piece generated by primary collagenase cleavage of type II collagen. The release of the COL2-3/4C epitope into media was also measured by immunoassay. Total contents in tissue/cells and media was recorded for COL2-3/^4Cshort epitope. The COL2-3/4m epitope was recorded in cells and tissue where it was concentrated. The remaining residues of pellets and explants were digested overnight with 1.0 mg/ml proteinase K at 56° C. to extract the remaining intact type II collagen and then boiled for 10 min to denature the enzyme. Total type II collagen content in the pellets and explant was determined from the collective amount of COL2-3/4m in both the α-chymotrypsin and proteinase K digests.
# [2] = tested on: normal human adult articular cartilage explants; assay: Proteoglycan release and content (DMMB dye assay) in human explant culture
# Procedure: Cumulative proteoglycan (mainly aggrecan) released into medium was calculated by summation of proteoglycan contents in medium at each medium change of every four days. Cartilage explants were maintained for up to 16 days cultured with or without CB12-II at 10 μM. Sulfated glycosaminoglycan in medium was assayed by dimethylmethylene blue (DMMB) method. Data are expressed as μg GAG release per wet weight of cartilage.
# as §1
# The cartilage was assigned to 48 well plate (ca 40 mg/well) and kept in Medium A supplemented with 50 μg/ml ascorbic acid, 0.1 mg/bovine serum albumin, 50 μg/ml insulin, 5.0 μg/ml and 5.0 μg/ml sodium DMEM alone at 37° C. in 95% air/5% CO2. The cartilage was precultured for 2 days and medium was changed at day 0. […]
# In order to show the specificity of the peptide fragments of one embodiment on degradation of type II collagen as compared with proteoglycan, primarily aggrecan, sulphated glycosaminoglycan (GAG) content was determined in both the α-chymotrypsin and proteinase K digests for total proteoglycan (predominantly aggrecan) content in cell pellets, cartilage explants and also in conditioned media. […]
# In order to examine any effects of SP on proteoglycan catabolism in normal human articular cartilage, cumulative proteoglycan (mainly aggrecan) release into medium and proteoglycan content in cartilage were determined by DMMB (1,9-dimethylmethyleneblue) dye assay.
# [3] = tested on: isolated human chondrocytes; assay: Cell attachment assay (total cellular hexosaminidase); details: preliminary studies
# Procedure: Ninety six-well, non-tissue culture plates were coated with a peptide fragment of the invention (CB12-II), a negative control peptide (USP), or human fibronectin in PBS at various concentrations overnight at room temperature in the laminar flow hood. […] Optimal binding was obtained with concentration of 10 μg/ml for CB12-II. After the plates were washed once with PBS, additional protein binding sites in the plate wells were blocked with 5% heat-denatured BSA in PBS at 37° […] for 1 hour. Freshly isolated human chondrocytes were recovered for 2 hours as described above, and then added to on substrate-coated plates at the density of 1×10^7 cells/ml (0.5-2×10^6 cells/well) and incubated at 37° C. for 1 hour. The chondrocyte suspensions were preincubated with 5 μg/ml anti-integrin blocking antibodies (from Chemicon): al (clone CB12), a2 (clone P1E6), a5, (clone DID6), α1 (clone 6S6), α2 (cloneP4H9), α3 (clone 25EW), α2β1 (clone BHA2.1), and α5β1 (clone JBS5) at 4° C. for 30 min prior to adding cells to the pre-coated wells for 1 hour at 37° C. Unattached cells were removed and the wells were washed gently twice with PBS. Bound cells were then quantitated by measuring total cellular hexosaminidase as described (36, 37). […] After a 6-h incubation, 90 μl of 50 mM glycine, 5 mM EDTA, pH 10.4 was added, and the absorbance was read at 405 nm.
sequence,measurement,setting,value
ERGPPGPQGARGFPGTPGLPGVK [CB12-II],"induction of cleavage of type II collagen, dose dependence","[1]; 1 μM (one donor), 5 μM and 10 μM (both donors), over 16 days",dose dependent manner; also recorded: Activity was seen
same,COL2-3/4 epitope production in cartilage and medium,"[1]; 10 μM, day 12",significant progressive increase
same,type II collagen cleavage by collagenase in presence of peptide,"[1]; hydroxylation study, day 16",clearly enhanced
same,"cumulative proteoglycan release, SP-treated versus control specimens","[2]; 10 μM, up to 16 days",no significant difference
same,proteoglycan release into medium,"[2]; 10 μM, up to 16 days",did not induce proteoglycan release
same,proteoglycan content in cartilage explants,[2]; data not shown,nor did it decrease proteoglycan content
same,coating concentration giving optimal binding of chondrocytes,[3],10 µg/mL
